# According to patent US20110190365A1, “Insecticidal 4-phenyl-1H-pyrazoles” (Bayer Crop Science AG, priority 2008, published 2011):
# Assay: log P by HPLC on a reversed-phase column (C18), EEC Directive 79/831 Annex V.A8
# Format: physicochemical
# Conditions: HCOOH
# Protocol: The stated log P values were determined in accordance with EEC Directive 79/831 Annex V.A8 by HPLC (High Performance Liquid Chromatography) using a reversed-phase column (C18).
row,Compound,log P (HCOOH)
1,Nc1c(-c2ccc(Cl)c(F)c2)c(C(F)(F)F)nn1-c1ccc(C(=O)NCc2ccccn2)cc1 [I-A-Q2-168],I-A-Q2-168: log P (HCOOH): 2.61
2,CC(NC(=O)c1ccc(-n2nc(C(F)(F)F)c(-c3cc(Cl)cc(C(F)(F)F)c3)c2N)cc1)C(F)(F)F (stereo not drawn) [I-A-Q2-095],I-A-Q2-095: log P (HCOOH): 4.51
3,Cc1cc(-n2nc(C(F)(F)F)c(-c3cc(Cl)cc(Cl)c3)c2N)ccc1C(=O)NCc1ncccc1C [I-A-Q2-029],I-A-Q2-029: log P (HCOOH): 3.24
4,Nc1c(-c2cccc(Cl)c2)c(C(F)(F)F)nn1-c1ccc(C(=O)NCC(F)(F)F)cc1 [I-A-Q2-085],I-A-Q2-085: log P (HCOOH): 3.47
5,Cc1cc(-n2nc(C(F)(F)F)c(-c3cc(Cl)cc(Cl)c3)c2N)ccc1C(=O)NC(C)Cc1ccccn1 (stereo not drawn) [I-A-Q2-065],I-A-Q2-065: log P (HCOOH): 2.72
6,C#CCNC(=O)c1ccc(-n2nc(C(F)(F)F)c(-c3cc(Cl)cc(Cl)c3)c2N)cc1C [I-A-Q2-238],I-A-Q2-238: log P (HCOOH): 3.78
7,Nc1c(-c2cc(Cl)cc(Cl)c2)c(C(F)(F)F)nn1-c1ccc(C(=O)NCC(F)(F)C(F)F)c(Cl)c1 [I-A-Q2-384],I-A-Q2-384: log P (HCOOH): 4.53
8,CC(NC(=O)c1ccc(-n2nc(-c3ccccc3)c(-c3ccc(Cl)cc3)c2N)cc1)c1ccccc1 (stereo not drawn) [I-A-Q2-077],I-A-Q2-077: log P (HCOOH): 4.17
9,Cc1cc(-n2nc(C(F)(F)F)c(-c3cc(Cl)cc(Cl)c3)c2N)ccc1C(=O)NC(C)c1ccc(C(F)(F)F)cn1 (stereo not drawn) [I-A-Q2-240],I-A-Q2-240: log P (HCOOH): 4.70
10,Nc1c(-c2cc(Cl)cc(Cl)c2)c(C(F)(F)F)nn1-c1ccc(C(=O)NCc2ccccn2)cc1 [I-A-Q2-134],I-A-Q2-134: log P (HCOOH): 3.11
11,CC(NC(=O)c1ccc(-n2nc(C(F)(F)F)c(-c3ccc(Cl)cc3)c2N)cc1)C(F)(F)F (stereo not drawn) [I-A-Q2-153],I-A-Q2-153: log P (HCOOH): 3.89
12,CC(C)NC(=O)c1ccc(-n2nc(C(F)(F)F)c(-c3cc(Cl)cc(Cl)c3)c2N)nc1 [I-A-Q2-097],I-A-Q2-097: log P (HCOOH): 4.64
13,CC(C)(C)NC(=O)c1ccc(-n2nc(C(F)(F)F)c(-c3cc(Cl)cc(Cl)c3)c2N)cc1 [I-A-Q2-146],I-A-Q2-146: log P (HCOOH): 4.54
14,Cc1cc(-n2nc(C(F)(F)OC(F)(F)C(F)(F)OC(F)(F)F)c(-c3cc(Cl)cc(C(F)(F)F)c3)c2N)ccc1C(=O)NCC(F)(F)C(F)F [I-A-Q2-287],I-A-Q2-287: log P (HCOOH): 5.33
15,Cc1cc(-n2nc(C(F)(F)C(F)(F)F)c(-c3ccc(Cl)cc3)c2N)ccc1C(=O)NCC(F)(F)C(F)F [I-A-Q2-321],I-A-Q2-321: log P (HCOOH): 4.00
16,Cc1cc(-n2nc(C)c(-c3cc(F)ccc3F)c2N)ccc1C(=O)NCc1ccccn1 [I-A-Q2-372],I-A-Q2-372: log P (HCOOH): 1.61
17,Cc1cc(-n2nc(C(F)(F)F)c(-c3ccc(C#N)cc3)c2N)ccc1C(=O)NCC(F)(F)C(F)F [I-A-Q2-306],I-A-Q2-306: log P (HCOOH): 3.24
18,CCOC(=O)c1ccc(-n2nc(C(F)(F)F)c(Cl)c2N)cc1 [XI-A-042],XI-A-042: log P (HCOOH): 3.52
19,CSc1c(-c2cc(Cl)cc(Cl)c2)c(C(F)(F)F)nn1-c1ccc(C(=O)NCC(F)(F)C(F)F)c(C)c1 [I-A-Q2-282],I-A-Q2-282: log P (HCOOH): 5.25

row,Compound,log P (HCOOH)
1,Cc1cc(-n2nc(C(F)(F)F)c(-c3cc(Cl)cc(Cl)c3)c2N)ccc1C(=O)NCc1ccc(F)cn1 [I-A-Q2-039],I-A-Q2-039: log P (HCOOH): 3.94
2,CCCNC(=O)c1ccc(-n2nc(C(F)(F)F)c(-c3cc(Cl)cc(Cl)c3)c2N)cc1C [I-A-Q2-202],I-A-Q2-202: log P (HCOOH): 4.22
3,Cc1cc(-n2nc(C(F)(F)F)c(-c3cc(Cl)cc(Cl)c3)c2N)ccc1C(=O)NCc1cc(F)cc(F)c1 [I-A-Q2-040],I-A-Q2-040: log P (HCOOH): 4.57
4,COC(=O)CC(NC(=O)c1ccc(-n2nc(C(F)(F)F)c(-c3cc(Cl)cc(Cl)c3)c2N)cc1C)c1ccccn1 (stereo not drawn) [I-A-Q2-057],I-A-Q2-057: log P (HCOOH): 2.72
5,Cc1cc(-n2nc(C3CC3)c(-c3ccc(Cl)cc3)c2N)ccc1C(=O)NCc1ccccn1 [I-A-Q2-381],I-A-Q2-381: log P (HCOOH): 2.46
6,Cc1cc(-n2nc(C(F)(F)F)c(-c3cc(Cl)cc(Cl)c3)c2N)ccc1C(=O)NCc1ccc(C(F)(F)F)cn1 [I-A-Q2-233],I-A-Q2-233: log P (HCOOH): 4.40
7,Cc1cc(-n2nc(C)c(-c3c(F)cccc3Cl)c2N)ccc1C(=O)NCc1ccccn1 [I-A-Q2-374],I-A-Q2-374: log P (HCOOH): 1.66
8,Cc1cc(-n2nc(C(F)(F)F)c(-c3cc(Cl)cc(Cl)c3)c2N)ccc1C(=O)NC1CCS(=O)(=O)C1 (stereo not drawn) [I-A-Q2-218],I-A-Q2-218: log P (HCOOH): 3.33
9,Nc1c(-c2cc(Cl)cc(Cl)c2)c(C(F)(F)F)nn1-c1ccc(C(=O)NCC2CC2)cc1 [I-A-Q2-149],I-A-Q2-149: log P (HCOOH): 4.15
10,Cc1cc(-n2nc(C(F)(F)F)c(-c3ccccc3Cl)c2N)ccc1C(=O)NCc1ccccn1 [I-A-Q2-351],I-A-Q2-351: log P (HCOOH): 2.27
11,CC(NC(=O)c1ccc(-n2nc(C(F)(F)F)c(-c3cc(Cl)cc(Cl)c3)c2N)cc1)c1ccccc1 (stereo not drawn) [I-A-Q2-150],I-A-Q2-150: log P (HCOOH): 4.65
12,Cc1cc(-n2nc(C(F)(F)F)c(-c3cc(Cl)cc(Cl)c3)c2N)ccc1C(=O)NCc1ccncc1 [I-A-Q2-212],I-A-Q2-212: log P (HCOOH): 2.27
13,Cc1cc(-n2nc(C(F)(F)F)c(-c3c(F)cc(F)cc3F)c2N)ccc1C(=O)NCC(F)(F)C(F)F [I-A-Q2-307],I-A-Q2-307: log P (HCOOH): 3.27
14,Cc1cc(C)cc(-c2c(C(F)(F)F)nn(-c3ccc(C(=O)NCc4ccccn4)cc3)c2N)c1 [I-A-Q2-180],I-A-Q2-180: log P (HCOOH): 2.61
15,C=CCNC(=O)c1ccc(-n2nc(C(F)(F)F)c(-c3cc(Cl)cc(Cl)c3)c2N)cc1C [I-A-Q2-062],I-A-Q2-062: log P (HCOOH): 3.94
16,Cc1cc(-n2nc(C(F)(F)F)c(-c3cc(Cl)cc(Cl)c3)c2N)ccc1C(=O)NC(C)c1ccccc1 (stereo not drawn) [I-A-Q2-016],I-A-Q2-016: log P (HCOOH): 4.79
17,Cc1cc(-n2nc(C(F)(F)F)c(-c3cc(Cl)cc(Cl)c3)c2N)ccc1C(=O)NC1COC1 [I-A-Q2-044],I-A-Q2-044: log P (HCOOH): 3.42
18,Cc1cc(-n2nc(C(F)(F)F)c(-c3cc(Cl)cc(Cl)c3)c2N)ccc1C(=O)NC(C)C [I-A-Q2-229],I-A-Q2-229: log P (HCOOH): 4.05
19,Cc1cc(-n2nc(C(F)(F)Cl)c(-c3cc(Cl)cc(C(F)(F)F)c3)c2N)ccc1C(=O)NCc1ccccn1 [I-A-Q2-364],I-A-Q2-364: log P (HCOOH): 3.53

# Same assay, conditions: HCOOH; Table 4, compounds of formula I-A-Q4
row,Compound,log P (HCOOH)
1,Nc1c(-c2ccc(I)cc2)c(C(F)(F)F)nn1-c1ccc(Cl)cn1 [I-A-Q4-051],I-A-Q4-051: log P (HCOOH): 5.29
2,Nc1c(-c2cc(Cl)cc(Cl)c2)c(C(F)(F)F)nn1-c1ccc(Cl)cn1 [I-A-Q4-014],I-A-Q4-014: log P (HCOOH): 5.76
3,Cc1nn(-c2ccc(Cl)cn2)c(N)c1-c1ccc(Cl)cc1Cl [I-A-Q4-021],I-A-Q4-021: log P (HCOOH): 4.70
4,Cc1nn(-c2ccc(Cl)cn2)c(N)c1-c1cc(F)ccc1F [I-A-Q4-033],I-A-Q4-033: log P (HCOOH): 3.84
5,Nc1c(-c2ccc(Cl)c(Cl)c2)c(C(F)(F)F)nn1-c1ccc(C(=O)O)cc1 [I-A-Q4-089],I-A-Q4-089: log P (HCOOH): 3.69
6,N#Cc1cc(-n2nc(C(F)(F)F)c(-c3cc(Cl)cc(Cl)c3)c2N)ccc1S(=O)(=O)NCC(F)(F)F [I-A-Q4-123],I-A-Q4-123: log P (HCOOH): 4.41
7,Nc1c(-c2cc(Cl)cc(Cl)c2)c(C(F)(F)F)nn1-c1ccc(C(=O)O)c(C(F)(F)F)c1 [I-A-Q4-115],I-A-Q4-115: log P (HCOOH): 4.22
8,FC(F)(F)c1nn(-c2ccc(I)cc2)c(Br)c1-c1cc(Cl)cc(Cl)c1 [I-A-Q4-017],I-A-Q4-017: log P (HCOOH): 6.71
9,N#Cc1cc(-n2nc(C(F)(F)F)c(-c3cc(Cl)cc(Cl)c3)c2N)ccc1S(=O)(=O)NC1CCC1 [I-A-Q4-122],I-A-Q4-122: log P (HCOOH): 4.69

# Same assay, conditions: HCOOH; Table 6, compounds of formula I-B-Q2
row,Compound,log P (HCOOH)
1,O=C(NCC(F)(F)C(F)F)c1ccc(-n2cc(-c3cc(Cl)cc(Cl)c3)c(C(F)(F)F)n2)c2ccccc12 [I-B-Q2-021],I-B-Q2-021: log P (HCOOH): 4.58

# Same assay, conditions: HPLC, reversed-phase C18, mobile phase with formic acid
row,Compound,log P (HCOOH)
1,N#Cc1cc(-n2nc(C(F)(F)Oc3ccc(Cl)cc3)c(-c3cc(Cl)cc(C(F)(F)F)c3)c2N)ccc1-n1cncn1 [I-A-Q1-071],I-A-Q1-071: log P (HCOOH): 4.84
2,CCNC(=O)NCc1ccc(-n2nc(C(F)(F)F)c(-c3cc(Cl)cc(Cl)c3)c2N)cc1Cl [I-A-Q3-024],I-A-Q3-024: log P (HCOOH): 3.85
3,Cc1nn(-c2ccc(-n3cncn3)c(C#N)c2)c(N)c1-c1c(F)cccc1Cl [I-A-Q1-051],I-A-Q1-051: log P (HCOOH): 2.27
4,N#Cc1cc(-n2nc(C(F)(F)F)c(-c3cc(Cl)cc(Cl)c3)c2N)ccc1-n1cccn1 [I-A-Q1-082],I-A-Q1-082: log P (HCOOH): 4.34
5,N#Cc1ccc(-c2c(C(F)(F)F)nn(-c3ccc(-n4cncn4)c(C#N)c3)c2N)cc1 [I-A-Q1-047],I-A-Q1-047: log P (HCOOH): 2.64
6,Nc1c(-c2cc(Cl)cc(Cl)c2)c(C(F)(F)F)nn1-c1ccc(CNC(=O)C2CC2)c(Cl)c1 [I-A-Q3-022],I-A-Q3-022: log P (HCOOH): 4.12
7,Cc1nn(-c2ccc(-n3cncn3)c(C#N)c2)c(N)c1-c1cc(F)ccc1F [I-A-Q1-061],I-A-Q1-061: log P (HCOOH): 2.29
8,Cc1nn(-c2ccc(-n3cncn3)c(C#N)c2)c(N)c1-c1cccc(Cl)c1 [I-A-Q1-053],I-A-Q1-053: log P (HCOOH): 2.66
9,Nc1c(-c2cc(Cl)cc(Cl)c2)c(C(F)(F)F)nn1-c1ccc(CNC(=O)CC(F)(F)F)c(Cl)c1 [I-A-Q3-021],I-A-Q3-021: log P (HCOOH): 4.48
10,N#Cc1cnn(-c2ccc(-n3nc(C(F)(F)F)c(-c4cc(Cl)cc(Cl)c4)c3N)cc2C#N)c1 [I-A-Q1-079],I-A-Q1-079: log P (HCOOH): 4.28
11,N#Cc1cc(-n2nc(C(F)(F)F)c(-c3cc(Cl)cc(Cl)c3)c2N)ccc1-n1cnc(C(N)=O)n1 [I-A-Q1-088],I-A-Q1-088: log P (HCOOH): 3.06
12,N#Cc1cc(-n2nc(C(F)(F)F)c(-c3ccccc3Cl)c2N)ccc1-n1cncn1 [I-A-Q1-035],I-A-Q1-035: log P (HCOOH): 2.80
